Entries after “also recorded” stand apart in the source; their conditions may differ. Like-named read-outs stand apart in the source and are kept apart here.
Assays:
[1] = test system: Primary Neurons; experiment: HCS neurite outgrowth assay (High Content Screening with Primary Neurons); format: cell-based
[2] = test system: neurons from hippocampi of E18 rat embryos; experiment: Neurite growth length (% NTL) in cultured E18 rat hippocampal neurons, 9-point dose response, 48 hours; format: cell-based; conditions: for activity at 0.078 µM / activity at 0.156 µM / activity at 0.312 µM / activity at 0.625 µM / activity at 1.25 µM / activity at 2.5 µM / activity at 5 µM / activity at 10 µM / activity at 20 µM: Rattus norvegicus, Neuron, 48 h
How it was run: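 % NTL comes from automated neurite tracing of βIII-tubulin-stained cells, with 200–300 or more neurons per condition. Compounds were given in a 9-point dilution series (20 μM to 0.078125 μM) for 48 h. Cells were trypsin-dissociated E18 rat hippocampal neurons plated at 1500/well on poly-D-lysine.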

[3] = test system: corticospinal tract (CST) axons; experiment: Unilateral pyramidotomy model, in vivo axon growth (CST axon sprouting); conditions: mice, cortical injection, 2 mM final concentration, 5 weeks after unilateral pyramidotomy, N=2
From the text: B) Graph represents averages of sprouting axon index across two animals treated with indicated compounds. Error bars indicate range of data points. N=2 animals (mice).
To assess the role of the compounds described herein in axon growth in vivo, the unilateral pyramidotomy model was employed, in which the pyramid in the ventral brainstem was severed unilaterally, rostral to the decussation of corticospinal tract (CST) axons. The animals then received bilateral cortical injections of a compound described herein (or DMSO) mixed 1:1 with AAV8-UbC-GFP or AAV8-UbC-TdTomato (5×10^13 GC/mL) for a final concentration of 2 mM (2 animals (mice) for each condition). […] Axon growth in the cervical spinal cord was assessed after 5 weeks. Cervical sections of the spinal cord were stained with antibodies against PKCγ (to assess completeness of lesion), and GFP (to amplify the signal from the virus). For analyses, GFP+ axons sprouting into the denervated gray matter were counted at 0, 500, 1000 μm lateral to the central canal, and normalized to the number of GFP+ fibers at the level of the brainstem (sprouting axon index).

Molecule	EC50 ([1]; Primary neuron) [µM]	activity at 0.078 µM ([2]; 78 nM) [%]	activity at 0.156 µM ([2]; 156 nM) [%]	activity at 0.312 µM ([2]; 312 nM) [%]	activity at 0.625 µM ([2]; 625 nM) [%]	activity at 1.25 µM ([2]; 1.25 μM) [%]	activity at 2.5 µM ([2]; 2.5 μM) [%]	activity at 5 µM ([2]; 5 μM) [%]	activity at 10 µM ([2]; 10 μM) [%]	activity at 20 µM ([2]; 20 μM) [%]	also measured
Cc1cccc(C(=O)c2ccc(C(=O)N[C@@H]3CNC[C@H]3NC(=O)c3ccnc(N)n3)cc2)c1O [Example A74, 2-amino-N-[(3R,4R)-4-[4-(2-hydroxy-3-methylbenzoyl)benzamido]pyrrolidin-3-yl]pyrimidine-4-carboxamide]	4.5	101	103	103	106	105	119	121	137		
Cc1cccc(C(=O)c2ccc(C(=O)N[C@@H]3CNC[C@H]3NC(=O)c3ccncc3)cc2)c1O [Example A75, N-[(3R,4R)-4-[4-(2-hydroxy-3-methylbenzoyl)benzamido]pyrrolidin-3-yl]pyridine-4-carboxamide]	6.57	97.1	93.7	105	106	116	119	119	146	140	
COc1ccc(O)c(C(=O)c2ccc(C(=O)N[C@@H]3CNC[C@H]3NC(=O)c3ccnc(N)n3)cc2)c1 [Example A76, 2-amino-N-[(3R,4R)-4-[4-(2-hydroxy-5-methoxybenzoyl)benzamido]pyrrolidin-3-yl]pyrimidine-4-carboxamide]	8.37	131	121	140	156	169	207	317	558	692	
COc1ccc(O)c(C(=O)c2ccc(C(=O)N[C@@H]3CNC[C@H]3NC(=O)c3ccncc3)cc2)c1 [Example A77, N-[(3R,4R)-4-[4-(2-hydroxy-5-methoxybenzoyl)benzamido]pyrrolidin-3-yl]pyridine-4-carboxamide]	10.4	118	125	133	144	159	187	263	469	653	
Cc1ccc(O)c(C(=O)c2ccc(C(=O)N[C@@H]3CNC[C@H]3NC(=O)c3ccncc3)cc2)c1 [Example A78, N-[(3R,4R)-4-[4-(2-hydroxy-5-methylbenzoyl)benzamido]pyrrolidin-3-yl]pyridine-4-carboxamide]	7.77	122	121	133	143	152	176	256	410	503	
O=C(N[C@@H]1CNC[C@H]1NC(=O)c1ccc(C(=O)c2ccc(Cl)cc2O)cc1)c1ccncc1 [Example A79, N-[(3R,4R)-4-[4-(4-chloro-2-hydroxybenzoyl)benzamido]pyrrolidin-3-yl]pyridine-4-carboxamide]	> 20	116	109	117	118	111	116	112	107	94.7	
Cc1ccc(C(=O)c2ccc(C(=O)N[C@@H]3CNC[C@H]3NC(=O)c3ccnc(N)n3)cc2)c(O)c1 [Example A80, 2-amino-N-[(3R,4R)-4-[4-(2-hydroxy-4-methylbenzoyl)benzamido]pyrrolidin-3-yl]pyrimidine-4-carboxamide]	0.534	125	124	141	158	178	221	203	160	155	
Cc1ccc(C(=O)c2ccc(C(=O)N[C@@H]3CNC[C@H]3NC(=O)c3ccncc3)cc2)c(O)c1 [Example A81, N-[(3R,4R)-4-[4-(2-hydroxy-4-methylbenzoyl)benzamido]pyrrolidin-3-yl]pyridine-4-carboxamide]	5.22	124	120	127	128	128	125	130	113	116	
COc1ccc(C(=O)c2ccc(C(=O)N[C@@H]3CNC[C@H]3NC(=O)c3ccnc(N)n3)cc2)c(O)c1 [Example A82, 2-amino-N-[(3R,4R)-4-[4-(2-hydroxy-4-methoxybenzoyl)benzamido]pyrrolidin-3-yl]pyrimidine-4-carboxamide]	0.154	107	115	117	124	122	120	120	131	117	
COc1ccc(C(=O)c2ccc(C(=O)N[C@@H]3CNC[C@H]3NC(=O)c3ccncc3)cc2)c(O)c1 [Example A83, N-[(3R,4R)-4-[4-(2-hydroxy-4-methoxybenzoyl)benzamido]pyrrolidin-3-yl]pyridine-4-carboxamide]	0.486	106	105	110	118	124	127	127	123	117	
Nc1nccc(C(=O)N[C@@H]2CNC[C@H]2NC(=O)c2ccc(C(=O)c3cc(Cl)ccc3O)cc2)n1 [Example A84, 2-amino-N-[(3R,4R)-4-[4-(5-chloro-2-hydroxybenzoyl)benzamido]pyrrolidin-3-yl]pyrimidine-4-carboxamide]	6.86	115	118	125	139	153	165	270	492	564	
O=C(N[C@@H]1CNC[C@H]1NC(=O)c1ccc(C(=O)c2cc(Cl)ccc2O)cc1)c1ccncc1 [Example A85, N-[(3R,4R)-4-[4-(5-chloro-2-hydroxybenzoyl)benzamido]pyrrolidin-3-yl]pyridine-4-carboxamide]	3.82	134	144	140	153	177	219	376	534	426	
O=C(N[C@@H]1CNC[C@H]1NC(=O)c1ccc(C(=O)c2ccccc2O)cc1)c1ccncc1 [Example A86, N-[(3R,4R)-4-[4-(2-hydroxybenzoyl)benzamido]pyrrolidin-3-yl]pyridine-4-carboxamide]	11.9	124	135	126	134	136	158	185	271	379	
O=C(N[C@@H]1CNC[C@H]1NC(=O)c1ccc(C(=O)c2cc(Br)ccc2O)cc1)c1ccncc1 [Example A88, N-((3R,4R)-4-(4-(5-bromo-2-hydroxybenzoyl)benzamido)pyrrolidin-3-yl)isonicotinamide]	1.17										CST axon sprouting (sprouting axon index) [3]: promotes CST axon sprouting in the spinal cord; also recorded: nearly a two-fold increase in sprouting
COc1ccc(O)c(C(=O)c2ccc(C(=O)O[C@@H]3CCCNC[C@H]3NC(=O)c3ccncc3)cc2)c1F [Example A92, (3R,4R)-3-(isonicotinamido)azepan-4-yl 4-(2-fluoro-6-hydroxy-3-methoxybenzoyl)benzoate, reference compound]	0.711										CST axon sprouting (sprouting axon index) [3]: promotes CST axon sprouting in the spinal cord; also recorded: nearly a two-fold increase in sprouting
N[(3R,4R)-4-{4-[(2-fluoro-6-hydroxy-3- methoxyphenyl)methyl]benzamido}pyrrolidin- 3-yl]pyridine-4-carboxamide [Example A55]											EC50 [1]: 4.74 µM; neurite growth length (% NTL) ([2]; 78 nM): 85.02 % NTL; neurite growth length (% NTL) ([2]; 156 nM): 77.96 % NTL; neurite growth length (% NTL) ([2]; 312 nM): 80.06 % NTL; neurite growth length (% NTL) ([2]; 625 nM): 76.79 % NTL; neurite growth length (% NTL) ([2]; 1.25 μM): 81.96 % NTL; neurite growth length (% NTL) ([2]; 2.5 μM): 90.13 % NTL; neurite growth length (% NTL) ([2]; 5 μM): 93.58 % NTL; neurite growth length (% NTL) ([2]; 10 μM): 98.77 % NTL; neurite growth length (% NTL) ([2]; 20 μM): 96.04 % NTL

Reference: patent publication US11926613B2, “Kinase inhibitors for the treatment of central and peripheral nervous system disorders” (UNIVERSITY OF MIAMI, priority 2017, dated 2024)
